Where a name gives a salt, the structure may show the parent alone.
Experiments:
[1] = system: Pseudomonas aeruginosa ATCC 27853; experiment: Standard bacterial EPI assay: MIC of levofloxacin in the absence and presence of the EPI; assay type: cell-based; details: P. aeruginosa ATCC 27853
Procedure: (§1) MIC assays were conducted in accordance with Clinical and Laboratory Standards Institute (CLSI) guidelines for broth microdilution. A 96-well plate containing cation-adjusted Mueller-Hinton (CAMH broth with 2-fold serial dilution of compounds was inoculated with log-phase bacterial at 5×10^5 CFU/mL. The final volume in each well was 100 μL. Each compound was tested in duplicate. The microtiter plates were incubated in an aerobic environment for 18 hours at 37° C. Then the bacterial growth was tested by reading the plate with a VersaMax plate reader (Molecular Devices, Inc.) at 600 nm. The MIC was defined as the lowest compound concentration that inhibited 90% of bacteria growth.
The EPI assay for the purposes of these studies represents a MIC assay in which the MIC of the antibiotic against the bacteria is tested in the presence of an experimental efflux pump inhibitor (EPI). […] Using serial dilutions of the EPI, its enhancement of antibiotic activity was then evaluated. […]
The impact of Example 2 on the MIC values of two test antibiotics (levofloxacin and cefepime) against P. aeruginosa ATCC 27853 were evaluated using our standard EPI assay. […]
In our standard EPI assay, the MIC of the test antibiotic is determined in the absence and presence of sub-inhibitory concentrations of the EPI. […]

P. aeruginosa ATCC 27853 = experiment: Intrinsic MIC assay (CLSI broth microdilution); assay type: cell-based; details: Pseudomonas aeruginosa, ATCC27853, compound alone
Procedure: as §1
The intrinsic MIC of the experimental EPIs was tested with the method described. The 2-fold serial dilution begins with 100 μg/mL of tested compound in the first column of the 96-well plates. The following Gram-negative bacterial strains were included in these assays: […]

For NCCC[C@H](N)CNC(=O)c1[nH]c2cc(-c3ccc(F)cc3)ccc2c1C1CC1 [Example 2, (S)-3-cyclopropyl-N-(2,5-diaminopentyl)-6-(4-fluorophenyl)-1H-indole-2-carboxamide dihydrochloride], which “MIC of levofloxacin in the presence of the EPI” value ([1]; 6.25 μg/mL (½×MIC) of the EPI) is on record?
The value was 0.032 µg/mL.

And the “fold reduction of the MIC of levofloxacin relative to the absence of EPI” value ([1]; 6.25 μg/mL of the EPI)?
The value was 32 fold.

And the MIC (P. aeruginosa ATCC 27853)?
The MIC was 12.5 µg/mL.

From patent US11826357B2, “Bacterial efflux pump inhibitors” (RUTGERS, THE STATE UNIVERSITY OF NEW JERSEY, priority 2017, dated 2023)
